One experiment deals with β-catenin. The experiment can be described thus: β-catenin level in N2a cells by Western blotting. In kind it is cell-based. As to conditions: 24 h; for β-catenin level: concentration as low as 0.1 μM; for EC50: Mus musculus, 3-4 independent experiments, read-out: EC50 values (X±SD), β-catenin level. As for the experimental part: (A,C) N2a cells were treated with CI-994 at the indicated concentration for 24 h, and the levels of β-catenin (A) and BACE1 (C) were examined by Western blotting. (B,D) The band intensity of β-catenin and BACE1 was quantified and normalized to the corresponding signal for actin. The results represented in the histograms are shown as the mean±SD and are the average of three independent experiments. *P<0.05, **P<0.01 versus corresponding control value.
N2a cells were treated with 1015, 1011, or 1020 at the indicated concentration for 24 h. (A) the levels of total cellular β-catenin were examined by Western blotting. (B) The intensity of the β-catenin bands were quantified and normalized to the corresponding signal for actin. The results represented in the histograms are shown as the mean±SD and are the average of 3-4 independent experiments, and the EC50 values were calculated with graphpad prism.
Western blotting: Cells in 6-well plates were lysed in 0.5 ml of lysis buffer (phosphate-buffered saline containing 1% Triton X-100, 1× Proteinase inhibitor cocktail Complete, and 1 mM PMSF) at 4° C. for 15 min. Equal quantities of protein were subjected to SDS-PAGE under reducing conditions. Following transfer to immobilon-P transfer membrane, successive incubations with a primary antibody, and a horseradish peroxidase-conjugated secondary antibody or IRDye® 680RD goat anti-rabbit/mouse secondary antibodies were carried out for 60-120 min at room temperature. The immunoreactive proteins were then detected using the ECL system or the Odyssey infrared imaging system (LI-COR). Films showing immunoreactive bands were scanned by Hp Scanjet 5590.
(In western blotting, separated proteins are transferred to a membrane and probed.)

The next experiment relates to Wnt/β-catenin signaling. The experiment can be described thus: Luciferase reporter assay (Super8XTOPFlash) for Wnt/β-catenin signaling in HEK293 cells. In kind it is cell-based. The conditions noted are these: 24 h; for Wnt reporter activity / activation of Wnt/β-catenin signaling: HEK293 cells; for EC50: Homo sapiens, Wnt3A plasmid-transfected HEK293 cells, 30-30,000 nM, mean and SD of 3-7 independent experiments. The protocol:
(§1) (A) structures of niciosamide and CI-994; (B) HEK293 cells were transfected with Super8XTOPFlash and β galactosidase vectors along with Wnt3A or control vector. After 24 hours incubation, cells were treated with CI-994 at the indicated concentration for 24 hr. The luciferase activity was then measured and normalized to the activity of the β-galactosidase. (C) HT1080 cells stably transduced LRP6 with HA tag were treated with niciosamide and CI-994 at the indicated concentrations for 24 h. The levels of HA-LRP6 were examined by Western blot with anti-HA antibody. (D) Western blots showing the depletion of LRP6 after 2 days of transiently transfection of 50 nM LRP6 siRNA in HEK293 cells. ON-TARGETplus double-stranded siRNA oligomers against human LRP6 and non-specific scrambled siRNA control (Stealth RNAi™ siRNA Negative Control, Med GC) were purchased from Thermo Scientific. siRNA LRP6-1, siRNA LRP6-2 and control siRNA were Thermo Scientific catalog numbers J-003845-09, J-003845-11 and 12935300, respectively. (E) HEK293 cells were transfected with LRP6 siRNAs, and after 8 h incubation were further transfected with Super8XTOPFlash construct and β galactosidase-expressing vector. After 24 h incubation, the cells were treated with CI-994 (16 μM) for 24 h. The luciferase activity was then measured and normalized to β-galactosidase activity. All the values are the average of triplicate determinations with the SD values indicated by error bars. **P<0.01 versus corresponding control value.
HEK293 cells were transfected with SuperXTOPFlash and β-galactosidase vectors along with Wnt3A or control vector. After 24 h incubation, cells were treated with 1015 or 1039 at the indicated concentrations for 24 h. The luciferase activity was then measured and normalized to the activity of the β-galactosidase. All the values are the average of triplicate determinations with the SD values indicated by error bars. This experiment is representative of at least three such experiments performed with similar data.
Luciferase reporter assay for Wnt/β-catenin signaling: HEK293 cells were plated into 24-well plates. After overnight culture, the cells were transiently transfected with the Super8XTOPFlash luciferase construct and β-galactosidase-expressing vector along with or without Wnt3A plasmid. After 24 h incubation, cells were treated with each individual compound at the indicated concentrations for 24 h. Cells were then lysed and both luciferase and β-galactosidase activities were determined. The luciferase activity was normalized to the β-galactosidase activity.
HEK293 cells were plated into 24-well plates. After overnight culture, the cells were transiently transfected with the Super8XTOPFlash luciferase construct and β-galactosidase-expressing vector along with the Wnt3A plasmid. After 24 h incubation, the cells were treated with each individual compound at 30-30,000 nM in triplication for 24 h. The cells were then lysed, and luciferase and β-galactosidase activities were determined with the luciferase assay system (Promega, Cat. #E1501) and β-galactosidase assay system (Promega, Cat. #E2000), respectively. The luciferase activity was normalized to the s-galactosidase activity, and the EC50 values were calculated by use of GraphPad software, and shown in the below table. All the EC50 values (mean and SD) are from 3-7 independent experiments.
Background: Reporter assays use an easily measured gene product as a stand-in for the process of interest.

In the next experiment the test system is LRP6. Kind of experiment: Wnt reporter assay in HEK293 cells after LRP6 siRNA knockdown. In kind it is cell-based, human. The conditions noted are these: CI-994 16 μM, 1011, 1015, 1023 1 μM, 24 h. As for the experimental part:
as §1
(A) HT1080 cells stably transduced with human LRP6 with HA tag were treated with niciosamide (1 μM) and other compounds as noted (1 μM) for 24 hr. The levels of HA-LRP6 were examined by Western blots with anti-HA antibody. All samples were also probed with anti-actin antibody to verify equal loading. This experiment is a representative of two such experiments performed with similar data. (B) N2a cells were treated with 1015 and 1011 at the indicated concentrations for 24 h. The expression levels of LRP6, β-catenin and actin were examined by Western blotting. This experiment is a representative of three such experiments performed with similar data. (C) HEK293 cells were transfected with LRP6 siRNAs, and after 8 h incubation were further transfected with Super8XTOPFlash construct and β galactosidase-expressing vector. ON-TARGETplus double-stranded siRNA oligomers against human LRP6 and non-specific scrambled siRNA control (Stealth RNAi™ siRNA Negative Control, Med GC) were purchased from Thermo Scientific. siRNA LRP6-1, siRNA LRP6-2 and control siRNA were Thermo Scientific catalog numbers J-003845-09, J-003845-11 and 12935300, respectively. […] The luciferase activity was then measured and normalized to β-galactosidase activity. […]

Turning to `Nc1ccccc1NC(=O)c1ccc(C(=O)NCC2CCN2C2CCCC2)cn1` (stereo not drawn) [Compound 1015], in the experiment on β-catenin, the β-catenin level result was “significantly enhanced” and the concentration for a half-maximal effect (EC50) (as a rule, the concentration giving half of the maximal effect) turned out to be 960 ± 140 nM. For the same compound, in the experiment on Wnt/β-catenin signaling, the “Wnt reporter activity / activation of Wnt/β-catenin signaling” value was “activate” and the midpoint of the response, the EC50, lay at 623 ± 212 nM. In addition, the “effect of knockdown of LRP6 expression on the compound's effect on Wnt/β-catenin signaling” value (“effect of knockdown of LRP6 expression” for short) with LRP6 is recorded as “significantly attenuated”.

Regarding `Nc1ccccc1NC(=O)c1ccc(C(=O)NCCN2CCC3(CCCCC3)CC2)cc1` [Compound 1020], in the experiment on β-catenin, the β-catenin level entry is given as “significantly enhanced” and the EC50 is 1020 ± 240 nM. This compound returned an EC50 with Wnt/β-catenin signaling of 860 ± 278 nM.

On to `CC(=O)Nc1ccc(C(=O)Nc2ccccc2N)cc1` [CI-994, 4-(acetylamino)-N-(2-aminophenyl)benzamide, reference compound], for which, in the experiment with β-catenin (CI-994 at the indicated concentration), the β-catenin levels entry is given as “significantly increased”. In the experiment with Wnt/β-catenin signaling, the “Wnt reporter activity / activation of Wnt/β-catenin signaling” value is recorded as “increased”. In addition, the “effect of knockdown of LRP6 expression” value in the experiment with LRP6 is “significantly attenuated”.

In the case of `CC1CCCC(C)N1CCNC(=O)c1ccc(C(=O)Nc2ccccc2N)nc1` (stereo not drawn) [Compound 1011], the β-catenin level entry in the experiment on β-catenin is “significantly enhanced”. Further, the half-maximal effective concentration (EC50) in the experiment with β-catenin came out at 930 ± 10 nM; in the experiment with Wnt/β-catenin signaling, 920 ± 455 nM. Besides, the “effect of knockdown of LRP6 expression” value in the experiment on LRP6 is reported as “significantly attenuated”.

(Values after US20220267271A1, “WNT ACTIVATORS AND METHODS OF USE” (MAYO FOUNDATION FOR MEDICAL EDUCATION AND RESEARCH, priority 2019, published 2022).)
